In patent EP4610269A1, “UROKINASE PLASMINOGEN ACTIVATOR SURFACE RECEPTOR (UPAR) LIGANDS FOR DIAGNOSTIC OR THERAPEUTIC USE” (3B Pharmaceuticals GmbH, priority 2024, dated 2025):
*1 amine or outer side, *2 acyl side, *3 side chain or, on linkers, in order; H or OH if unused. Where a SMILES comes first, the peptide text is derived from it. Bridges are numbered along the chain shown (N, C = ends). Side-chain parts run from the residue outwards. [ ]: non-standard residue; d: D form. The star is where a group is joined. X4 = C[N+](C)(CCCC[C@H](NC(=O)CN1CCN(CC(=O)O)CCN(CC(=O)O)CCN(CC(=O)O)CC1)C(=O)*)CCCS(=O)(=O)[O-]; DOTA = O=C(O)CN1CCN(CC(=O)O)CCN(CC(=O)*)CCN(CC(=O)O)CC1; Pro(cis-4-F) = O=C(O)[C@@H]1C[C@H](F)CN1; Ethylenediamine = C(CN[*:2])N[*:1]; Hyp = O=C(O)[C@@H]1C[C@@H](O)CN1; Pentanoyl(4-Me) = CC(C)CCC(=O)*; Cit = NC(=O)NCCC[C@H](N)C(=O)O; Butoxycarbonyl = CCCCOC(=O)*; NMeNle = CCCC[C@H](NC)C(=O)O; Phg = N[C@H](C(=O)O)c1ccccc1; dOrn = NCCC[C@@H](N)C(=O)O; Nle = CCCC[C@H](N)C(=O)O; Aze = O=C(O)[C@@H]1CCN1; Nva = CCC[C@H](N)C(=O)O; Pentanoyl = CCCCC(=O)*

Legend:
human uPAR (uPAR-Fc) = molecular target: T1, human uPAR (uPAR-Fc) (Homo sapiens, UniProt Q03405); experiment: Surface plasmon resonance (SPR) assay, single cycle kinetics; assay type: binding; details: pKD category for uPAR SPR activity assay; uPAR-Fc on Protein A-Chip, single cycle kinetics, 25°C; read-out: pKD CAT (converted)
T1 construct: comprising amino acids Leu23-Arg303 according to UniProt entry Q03405.1; purchased R&D Systems 10378-UK-100
How it was run: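 uPAR-Fc (Leu23-Arg303 extracellular domains, human IgG1 Fc) captured on Protein A chip to ~2000 RU; single-cycle kinetics at 25°C in HEPES running buffer pH 7.4 with 0.1% DMSO. KD from double-referenced sensorgrams fitted to 1:1 Langmuir model, reported as pKD.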

[1] = molecular target: T2, uPAR-expressing HEC-265 human endometrial adenocarcinoma cells (Homo sapiens, UniProt Q03405); experiment: Competitive FACS binding assay; details: pIC50 category of FACS binding
T2 construct: Cell surface uPAR-expressing HEC-265 human endometrial adenocarcinoma cells; host or cells: HEC-265
How it was run: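 HEC-265 cells incubated 1 h at 4 °C with 10 nM biotinylated uPAR peptide tracer plus increasing test compound, then stained with APC-streptavidin on ice. Median APC fluorescence by flow cytometry; 4PL fit gives pIC50.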

T2 sequence (Q03405 23-335): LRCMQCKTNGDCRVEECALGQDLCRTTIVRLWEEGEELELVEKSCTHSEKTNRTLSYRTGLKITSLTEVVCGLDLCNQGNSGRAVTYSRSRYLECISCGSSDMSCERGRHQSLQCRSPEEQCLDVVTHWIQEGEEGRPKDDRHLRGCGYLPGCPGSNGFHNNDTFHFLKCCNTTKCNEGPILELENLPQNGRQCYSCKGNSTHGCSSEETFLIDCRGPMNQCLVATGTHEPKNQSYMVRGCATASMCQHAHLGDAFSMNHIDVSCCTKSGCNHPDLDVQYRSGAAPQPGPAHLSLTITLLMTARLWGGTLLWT
T1 sequence (Q03405 23-303): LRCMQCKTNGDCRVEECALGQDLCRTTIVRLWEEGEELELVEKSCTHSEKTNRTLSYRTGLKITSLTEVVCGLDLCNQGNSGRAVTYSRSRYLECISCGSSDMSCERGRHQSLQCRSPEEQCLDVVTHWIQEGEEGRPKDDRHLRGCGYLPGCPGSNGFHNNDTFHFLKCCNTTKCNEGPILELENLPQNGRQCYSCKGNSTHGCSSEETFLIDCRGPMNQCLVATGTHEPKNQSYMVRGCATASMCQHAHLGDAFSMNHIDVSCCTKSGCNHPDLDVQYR

Row | SMILES | Kd (human uPAR (uPAR-Fc)) [nM] | IC50 [1] [nM]
1 | CCCCOC(=O)N[C@H]1CSSC[C@@H](C(N)=O)NC(=O)[C@H](CCC)NC(=O)[C@H]([C@@H](C)CC)NC(=O)[C@@H]2C[C@@H](O)CN2C(=O)[C@@H]2C[C@H](F)CN2C(=O)[C@H](Cc2ccccc2)NC(=O)[C@H](Cc2ccc(O)cc2)NC(=O)[C@H](CCCCNC(=O)[C@H](CCCC[N+](C)(C)CCCS(=O)(=O)[O-])NC(=O)CN2CCN(CC(=O)O)CCN(CC(=O)O)CCN(CC(=O)O)CC2)NC(=O)[C@H]([C@@H](C)O)NC1=O [UPAR-422, Butoc-[Cys-Thr-Lys(DOTA-Kzw)-Tyr-Phe-4Cfp-Hyp-Ile-Nva-Cys]-NHz] (Butoxycarbonyl-CTK(X4)YF[Pro(cis-4-F)][Hyp]I[Nva]C-NH2; disulfide 1-10) | < 1.58 | ≤ 10
2 | CC[C@H](C)[C@@H]1NC(=O)[C@H](CCCNC(=N)N)NC(=O)[C@@H]2CCCN2C(=O)[C@H](Cc2ccccc2)NC(=O)[C@H](Cc2ccc(O)cc2)NC(=O)[C@H](CCCCNC(=O)CN2CCN(CC(=O)O)CCN(CC(=O)O)CCN(CC(=O)O)CC2)NC(=O)[C@H](CCCNC(N)=O)NC(=O)[C@@H](NC(=O)[C@H](CC(C)C)NC(=O)[C@H](CC(=O)O)NC(C)=O)CSSC[C@@H](C(N)=O)NC(=O)[C@H](CC(C)C)NC1=O [UPAR-423, Ac-Asp-Leu-[Cys-Cit-Lys(DOTA)-Tyr-Phe-Pro-Arg-Ile-Leu-Cys]-NH2] (Ac-DLC[Cit]K(DOTA)YFPRILC-NH2; disulfide 3-12) | < 1.58 | ≤ 10
3 | CCCCOC(=O)N[C@H]1CSSC[C@@H](C(N)=O)NC(=O)[C@H](CCC)NC(=O)[C@H]([C@@H](C)CC)NC(=O)[C@@H]2C[C@@H](O)CN2C(=O)[C@@H]2C[C@H](F)CN2C(=O)[C@H](Cc2ccccc2)NC(=O)[C@H](Cc2ccc(O)cc2)NC(=O)[C@H](CCCCNC(=O)[C@@H](CC(=O)O)NC(=O)CN2CCN(CC(=O)O)CCN(CC(=O)O)CCN(CC(=O)O)CC2)NC(=O)[C@H]([C@@H](C)O)NC1=O [UPAR-424, Butoc-[Cys-Thr-Lys(DOTA-asp)-Tyr-Phe-4Cfp-Hyp-Ile-Nva-Cys]-NHz] (Butoxycarbonyl-CTK([dD-DOTA])YF[Pro(cis-4-F)][Hyp]I[Nva]C-NH2; disulfide 1-10) | < 1.58 | ≤ 10
4 | CCCCC(=O)N[C@H]1CSSC[C@@H](C(N)=O)NC(=O)[C@H](CCC)NC(=O)[C@H]([C@@H](C)CC)NC(=O)CNC(=O)[C@@H]2CCCN2C(=O)[C@H](Cc2ccccc2)NC(=O)[C@H](Cc2ccc(O)cc2)NC(=O)[C@H](CCCCNC(=O)CN2CCN(CC(=O)O)CCN(CC(=O)O)CCN(CC(=O)O)CC2)NC(=O)[C@H](CCCNC(N)=O)NC1=O [UPAR-425, Pent-[Cys-Cit-Lys(DOTA)-Tyr-Phe-Pro-Gly-Ile-Nva-Cys]-NH2] (Pentanoyl-C[Cit]K(DOTA)YFPGI[Nva]C-NH2; disulfide 1-10) | < 1.58 | ≤ 10
5 | CC[C@H](C)[C@@H]1NC(=O)[C@@H](C)NC(=O)[C@@H]2CCN2C(=O)[C@H](Cc2ccccc2)NC(=O)[C@H](Cc2ccc(O)cc2)NC(=O)[C@H](CCC(N)=O)NC(=O)[C@H](CCCNC(N)=O)NC(=O)[C@@H](NC(=O)CCC(C)C)CSSC[C@@H](C(N)=O)NC(=O)[C@H](CC(C)C)NC1=O [UPAR-426, iHex-[Cys-Cit-Gln-Tyr-Phe-Aze-ala-Ile-Leu-Cys]-NH2] ({Pentanoyl(4-Me)}-C[Cit]QYF[Aze][dA]ILC-NH2; disulfide 1-10) | 1.58 to 10 | ≤ 10
6 | CCCC[C@H](NC)C(=O)N[C@H]1CSSC[C@@H](C(N)=O)NC(=O)[C@H](CCC)NC(=O)[C@H]([C@@H](C)CC)NC(=O)[C@@H]2C[C@@H](O)CN2C(=O)[C@@H]2C[C@H](F)CN2C(=O)[C@H](Cc2ccccc2)NC(=O)[C@H](Cc2ccc(O)cc2)NC(=O)[C@H](CCCCNC(=O)CN2CCN(CC(=O)O)CCN(CC(=O)O)CCN(CC(=O)O)CC2)NC(=O)[C@H]([C@@H](C)O)NC1=O [UPAR-428, H-Nmb-[Cys-Thr-Lys(DOTA)-Tyr-Phe-4Cfp-Hyp-Ile-Nva-Cys]-NH2] (H-[NMeNle]CTK(DOTA)YF[Pro(cis-4-F)][Hyp]I[Nva]C-NH2; disulfide 2-11) | < 1.58 | ≤ 10
7 | CCC[C@@H]1NC(=O)[C@H]([C@@H](C)CC)NC(=O)[C@@H](C)NC(=O)[C@@H]2CCCN2C(=O)[C@H](Cc2ccccc2)NC(=O)[C@H](Cc2ccc(O)cc2)NC(=O)[C@H](CCC(N)=O)NC(=O)[C@H](CCCNC(N)=O)NC(=O)[C@@H](NC(=O)CCC(C)C)CSSC[C@@H](C(N)=O)NC1=O [UPAR-429, iHex-[Cys-Cit-Gln-Tyr-Phe-Pro-ala-Ile-Nva-Cys]-NH2] ({Pentanoyl(4-Me)}-C[Cit]QYFP[dA]I[Nva]C-NH2; disulfide 1-10) | < 1.58 | ≤ 10
8 | CCCCC(=O)N[C@H]1CSSC[C@@H](C(=O)NCCN)NC(=O)[C@H](CCC)NC(=O)[C@H]([C@@H](C)CC)NC(=O)[C@@H]2C[C@@H](O)CN2C(=O)[C@@H]2CCCN2C(=O)[C@H](Cc2ccccc2)NC(=O)[C@H](Cc2ccc(O)cc2)NC(=O)[C@H](CCC(N)=O)NC(=O)[C@H](CCCNC(N)=O)NC1=O [UPAR-430, Pent-[Cys-Cit-Gln-Tyr-Phe-Pro-Hyp-Ile-Nva-Cys]-en] (Pentanoyl-C[Cit]QYFP[Hyp]I[Nva]C-Ethylenediamine; disulfide 1-10) | 1.58 to 10 | 12.6 to 31.6
9 | CCCC[C@@H]1NC(=O)[C@H](CCCNC(=N)N)NC(=O)[C@@H](NC(=O)[C@H](CC(C)C)NC(=O)[C@H](CC(=O)O)NC(C)=O)CSSC[C@@H](C(N)=O)NC(=O)[C@H](CC(C)C)NC(=O)[C@H]([C@@H](C)CC)NC(=O)[C@@H]2CCCN2C(=O)[C@@H]2CCCN2C(=O)[C@H](Cc2ccccc2)NC(=O)[C@H](Cc2ccc(O)cc2)NC1=O [UPAR-431, Ac-Asp-Leu-[Cys-Arg-Nle-Tyr-Phe-Pro-Pro-Ile-Leu-Cys]-NH2] (Ac-DLCR[Nle]YFPPILC-NH2; disulfide 3-12) | < 1.58 | ≤ 10
10 | CC[C@H](C)[C@@H]1NC(=O)[C@@H](C)NC(=O)[C@@H]2CCCN2C(=O)[C@H](Cc2ccccc2)NC(=O)[C@H](Cc2ccc(O)cc2)NC(=O)[C@H](CCCCNC(=O)CN2CCN(CC(=O)O)CCN(CC(=O)O)CCN(CC(=O)O)CC2)NC(=O)[C@H](CC(=O)O)NC(=O)[C@@H](NC(=O)[C@H](CC(C)C)NC(=O)[C@H](CC(=O)O)NC(C)=O)CSSC[C@@H](C(N)=O)NC(=O)[C@H](CC(C)C)NC1=O [UPAR-432, Ac-Asp-Leu-[Cys-Asp-Lys(DOTA)-Tyr-Phe-Pro-ala-Ile-Leu-Cys]-NH2] (Ac-DLCDK(DOTA)YFP[dA]ILC-NH2; disulfide 3-12) | 10 to 100 | 12.6 to 31.6
11 | CCCCC(=O)N[C@H]1CSSC[C@@H](C(N)=O)NC(=O)[C@H](CCC)NC(=O)[C@H]([C@@H](C)CC)NC(=O)[C@@H]2C[C@@H](O)CN2C(=O)[C@H](CC(C)C)NC(=O)[C@H](Cc2ccccc2)NC(=O)[C@H](Cc2ccc(O)cc2)NC(=O)[C@H](CCC(N)=O)NC(=O)[C@H](CCCNC(=N)N)NC1=O [UPAR-433, Pent-[Cys-Arg-Gln-Tyr-Phe-Leu-Hyp-Ile-Nva-Cys]-NH2] (Pentanoyl-CRQYFL[Hyp]I[Nva]C-NH2; disulfide 1-10) | < 1.58 | ≤ 10
12 | CCCCC(=O)N[C@H]1CSSC[C@@H](C(N)=O)NC(=O)[C@H](CCC)NC(=O)[C@H]([C@@H](C)CC)NC(=O)[C@@H](CCC(=O)O)NC(=O)[C@@H]2CCCN2C(=O)[C@H](Cc2ccccc2)NC(=O)[C@H](Cc2ccc(O)cc2)NC(=O)[C@H](CCC(N)=O)NC(=O)[C@H](CCCNC(=N)N)NC1=O [UPAR-436, Pent-[Cys-Arg-Gln-Tyr-Phe-Pro-glu-Ile-Nva-Cys]-NH2] (Pentanoyl-CRQYFP[dE]I[Nva]C-NH2; disulfide 1-10) | 10 to 100 | 12.6 to 31.6
13 | CCCCC(=O)N[C@H]1CSSC[C@@H](C(N)=O)NC(=O)[C@H](CCC)NC(=O)[C@H](c2ccccc2)NC(=O)[C@@H]2C[C@@H](O)CN2C(=O)[C@@H]2CCCN2C(=O)[C@H](Cc2ccccc2)NC(=O)[C@H](Cc2ccc(O)cc2)NC(=O)[C@H](CCC(N)=O)NC(=O)[C@H](CCCNC(=N)N)NC1=O [UPAR-437, Pent-[Cys-Arg-Gln-Tyr-Phe-Pro-Hyp-Phg-Nva-Cys]-NHz] (Pentanoyl-CRQYFP[Hyp][Phg][Nva]C-NH2; disulfide 1-10) | < 1.58 | ≤ 10
14 | CCCCC(=O)N[C@H]1CSSC[C@@H](C(N)=O)NC(=O)[C@H](CCC)NC(=O)[C@H]([C@@H](C)CC)NC(=O)[C@@H](CCCN)NC(=O)[C@@H]2CCCN2C(=O)[C@H](Cc2ccccc2)NC(=O)[C@H](Cc2ccc(O)cc2)NC(=O)[C@H](CCC(N)=O)NC(=O)[C@H](CCCNC(=N)N)NC1=O [UPAR-438, Pent-[Cys-Arg-Gln-Tyr-Phe-Pro-orn-Ile-Nva-Cys]-NH2] (Pentanoyl-CRQYFP[dOrn]I[Nva]C-NH2; disulfide 1-10) | 1.58 to 10 | 12.6 to 31.6
15 | CC[C@H](C)[C@@H]1NC(=O)[C@@H](C)NC(=O)[C@@H]2C[C@@H](O)CN2C(=O)[C@H](Cc2ccccc2)NC(=O)[C@H](Cc2ccc(O)cc2)NC(=O)[C@H](CCC(N)=O)NC(=O)[C@H](CCCNC(N)=O)NC(=O)[C@@H](NC(=O)CCC(C)C)CSSC[C@@H](C(N)=O)NC(=O)[C@H](CC(C)C)NC1=O [UPAR-439, iHex-[Cys-Cit-Gln-Tyr-Phe-Hyp-ala-Ile-Leu-Cys]-NH2] ({Pentanoyl(4-Me)}-C[Cit]QYF[Hyp][dA]ILC-NH2; disulfide 1-10) | 1.58 to 10 | ≤ 10
